Measurements published in ChEMBL document CHEMBL1764986, “Per-N-methylated analogues of an antitumor bicyclic hexapeptide RA-VII” (Bioorg Med Chem, 2011).

Each molecule was assayed on P388 (assay: Cytotoxicity against mouse P388 cells).
Assay type: functional, cell-based
For COc1ccc(C[C@H]2C(=O)N(C)[C@@H](C)C(=O)N(C)[C@H]3Cc4ccc(cc4)Oc4cc(ccc4OC)C[C@@H](C(=O)N(C)[C@H](C)C(=O)N(C)[C@@H](C)C(=O)N2C)N(C)C3=O)cc1, the IC50 was 3.1 µM.
Molecule COc1ccc(C[C@H]2C(=O)N(C)[C@@H](C)C(=O)N(C)[C@H]3Cc4ccc(cc4)Oc4cc(c(Br)cc4OC)C[C@@H](C(=O)N(C)[C@H](C)C(=O)N(C)[C@@H](C)C(=O)N2C)N(C)C3=O)cc1 has an IC50 greater than 110 µM.
COc1ccc(C[C@H]2C(=O)N(C)[C@@H](C)C(=O)N(C)[C@H]3Cc4ccc(cc4)Oc4cc(ccc4OC)C[C@@H](C(=O)N(C)[C@H](C)C(=O)N[C@@H](C)C(=O)N2C)N(C)C3=O)cc1 was tested, and the IC50 was 10 µM.
Molecule COc1ccc(C[C@H]2C(=O)N[C@@H](C)C(=O)N(C)[C@H]3Cc4ccc(cc4)Oc4cc(ccc4OC)C[C@@H](C(=O)N[C@H](C)C(=O)N(N)[C@@H](C)C(=O)N2C)N(C)C3=O)cc1 has an IC50 of 0.0057 µM.
Molecule COc1ccc(C[C@H]2C(=O)N(C)[C@@H](C)C(=O)N(C)[C@H]3Cc4ccc(cc4)Oc4cc(ccc4OC)C[C@@H](C(=O)N(C)[C@H](C)C(=O)N(N)[C@@H](C)C(=O)N2C)N(C)C3=O)cc1 has an IC50 of 49 µM.
COc1ccc(C[C@H]2C(=O)N[C@@H](C)C(=O)N(C)[C@H]3Cc4ccc(cc4)Oc4cc(ccc4OC)C[C@@H](C(=O)N[C@H](C)C(=O)N[C@@H](C)C(=O)N2C)N(C)C3=O)cc1 showed an IC50 of 0.0022 µM.
